The test system of data set [1] is platelet aggregation (platelet-rich plasma). Briefly: Antithrombotic activity: inhibition of collagen-induced platelet aggregation in platelet-rich plasma (Born and Cross). The format is cell-based, human (healthy volunteers). The settings on record: 50% change in optical density, human platelet-rich plasma, 10 min preincubation. On the procedure:
2. Antithrombotic Activity Method The thrombocyte aggregation is measured using the Born and Cross method (J. Physiol. 170:397 (1964)) in platelet-rich plasma taken from healthy volunteers. To inhibit coagulation the blood is mixed with 3.14% sodium citrate in a ratio by volume of 1:10. Collagen-induced aggregation The pattern of the decrease in optical density of the platelet suspension is photometrically measured and recorded after the addition of aggregation-triggering substance. The rate of aggregation is concluded from the angle of inclination of the density curve. The point on the curve where there is maximum light transmittance is used to calculate the optical density. The amount of collagen used is as small as possible but sufficient to produce an irreversible reaction curve. Standard commercial collagen produced by Hormonchemie of Munich is used. Before the addition of the collagen the plasma is incubated for 10 minutes with the substance at […]. From the measurements obtained an EC50 is determined graphically, indicating a 50% change in the optical density in terms of the inhibition of aggregation.

The target in another data set is Human Thrombocytes. The data set is described as follows: Fibrinogen binding to human thrombocytes (fibrinogen binding test). As to the method: 1. Fibrinogen Binding to Human Thrombocytes The blood obtained by puncturing an antecubital vein is anticoagulated with trisodium citrate (final concentration: 13 mM) and centrifuged for 10 minutes at 170× g. The supernatant platelet-rich plasma is poured onto a Sepharose 2B column (Pharmacia) and eluted with a solution of 90 mM common salt, 14 mM trisodium citrate, 5 mM glucose and 50 mM tris(hydroxymethyl)aminomethane, adjusted to pH 7.4. The gel-filtered platelets (GFP) appearing before the plasma proteins are used for the binding experiments. 50 μl of a 60 mM calcium chloride solution, 50 μl of a 0.6 mM adenosine diphosphate solution, 100 μl of substance solution or solvent and 50 μl of fibrinogen solution (containing 3 μg of ^125 fibrinogen) are added to 750 μl of GFP and incubated for 20 minutes at ambient temperature. The non-specific binding is determined in the presence of 3 mg/ml of cold fibrinogen. 900 μl of the incubated material are carefully pipetted onto 250 μl of silicon oil (AP 38: AR 20, 1:2 v/v, Wacker Chemie) in Eppendorf tubes and centrifuged for 2 minutes at 10,000× g. The aqueous supernatant and some of the oil are drawn off, the tips of the tubes are cut off together with the platelet pellet and the quantity of bound fibrinogen is determined in a gamma counter. The concentration of substance which brings about a 50% inhibition in fibrinogen binding is determined from a series of concentrations and is given as the IC50 value. | *^125 I fibrogen was replaced by […] |e.

Another data set relates to mice. The data set is described as follows: Tolerance after intravenous administration to mice. The format is in vivo. The settings on record: 30 mg/kg intravenous, three mice.
Where [2] appears, read: 125I fibrinogen, 50% inhibition of fibrinogen binding, gel-filtered human platelets, ADP, 20 min ambient temperature, read-out: Fibrinogen binding test IC50.
The mark [3] stands for this setting: *: 125I fibrinogen replaced by 3H-(3S,5S)-5-[(amidino-biphenylyl)-oxymethyl]-carboxymethyl-pyrrolidinone ligand, read-out: Fibrinogen binding test IC50 (values marked *).

Where a name gives a salt, the structure may show the parent alone. Read-outs that look alike come from different tables or passages of the source.

For orientation: EC50 means the concentration that produces a half-maximal response. A lower EC50 goes with a more potent agent. As usually defined, the IC50 is the midpoint of a concentration-inhibition curve.

On to `Cn1c(-c2ccc(C(=N)N)cc2)nc2cc(C(=O)NCCC(=O)O)ccc21` [Example 1(3), 2-(4-amidino-phenyl)-5-[(2-carboxy-ethyl)-aminocarbonyl]-1-methyl-benzimidazole], for which the response in data set [1] was half-maximal at 0.07 µM (EC50). For the same compound, the IC50 on Human Thrombocytes (setting [2]) came out at 0.037 µM. Further, the “deaths after intravenous administration” value in the data set on mice was “no animals died”.
In turn, `Cn1c(-c2ccc(CN)cc2)nc2cc(C(=O)NCCC(=O)O)ccc21` [17(1), 2-(4-aminomethyl-phenyl)-5-[(2-carboxy-ethyl)-aminocarbonyl]-1-methyl-benzimidazole-dihydrobromide] came in with an EC50 in data set [1] of 1.53 µM. In addition, the half-maximal inhibitory concentration (IC50) on Human Thrombocytes (setting [2]) stood at 0.7 µM.
In data set [1], `COC(=O)CCNC(=O)c1ccc2c(c1)nc(-c1ccc(C(=N)N)cc1)n2CCCN1CC[S+]([O-])CC1` [Example 5, 2-(4-Amidino-phenyl)-5-[(2-methoxycarbonyl-ethyl)-aminocarbonyl]-1-[3-(S-oxido-thiomorpholino)-propyl]-benzimidazole-hydrochloride] returned an EC50 of 43 µM. The IC50 on Human Thrombocytes (setting [3]) turned out to be 15 µM.
For `CCCCCCCCCCCCCCn1c(-c2ccc(C(=N)N)cc2)nc2cc(C(=O)NCCC(=O)O)ccc21` [17(6), 2-(4-amidino-phenyl)-5-[(2-carboxy-ethyl)-aminocarbonyl]-1-n-tetradecyl-benzimidazole-dihydrobromide], the EC50 in data set [1] came to 30 µM. Also, at Human Thrombocytes (setting [3]), the IC50 is 1.8 µM.
Consider `COC(=O)CCNC(=O)c1ccc2[nH]c(-c3ccc(C(=N)N)cc3)nc2c1` [15(1), 2-(4-amidino-phenyl)-5(6)-[(2-methoxycarbonyl-ethyl)-aminocarbonyl]-benzimidazole-hydrochloride], for which the EC50 in data set [1] is 4.1 µM. Besides, the concentration for half-maximal inhibition (IC50) at Human Thrombocytes (setting [3]) came to 2.5 µM.
In data set [1], `N=C(N)c1ccc(-c2nc3cc(C(=O)NCCC(=O)O)ccc3n2CCN2CCN(Cc3ccccc3)CC2)cc1` [1(136), 2-(4-amidino-phenyl)-1-[2-(4-benzyl-piperazino)-ethyl]-5-[(2-carboxy-ethyl)-aminocarbonyl]-benzimidazole] had an EC50 of 0.08 µM. The IC50 on Human Thrombocytes (setting [2]) is 0.03 µM.

The record behind these values is patent US5434150A, “Condensed 5-membered heterocyclic compounds, processes for preparing them and pharmaceutical preparations containing these compounds” (Dr. Karl Thomae GmbH, priority 1991, dated 1995).
